Counter-ions that a name gives are not always drawn.
Tested on: activated partial thromboplastin time (APTT)
Test: activated partial thromboplastin time (APTT) determination
Set-up: species or system human
Conditions: Example 1, plasma, N 48
Description: Tetrahydrofuran-2,3,4,5-tetracarboxylic acid (THTCA) was from TCI, Germany. Pristine blood collection tubes, i.e. tubes as originally provided not containing or respectively not filled or coated with additive, were from KABE Labortechnik GmbH, Germany, denoted KABEVETTE (GR).
Blood was collected from the antecubital vein from volunteers who had previously given their informed consent. […] Tubes were filled with blood completely to the mark (4.9 mL), and for tubes containing anticoagulant the blood was mixed well with the respective anticoagulant by inverting the tubes 4 times immediately after blood collection. Serum samples were treated according to the protocol of the manufacturer and used for biochemical analysis. […] Potassium EDTA plasma was also used for biochemical determinations.
The analyses of metabolites, minerals, and enzymes were performed using the automated analyzers cobas 6000 C and 6000 E. Haemostasis tests and haematologic parameters were measured by STA-R (Diagnostica Stago) analyzer and LH 780 analyzer (Beckman Coulter) respectively.

| Structure (SMILES) | APTT Mean (listed as GR 15, monohydrate) [s] | APTT Mean [s] |
| --- | --- | --- |
| O=C(O)CC(O)(CC(=O)O)C(=O)O [CA, Citric acid monohydrate] | 29.94 |  |
| O=C(O)CC(O)(CC(=O)O)C(=O)O [citrate (BD), sodium citrate] |  | 29.71 |

— US10969396B2, “In vitro method, use of an agent and collection device for the inhibition of coagulation in blood” (priority 2013, dated 2021)
